Experimental findings from US8691812B2, “Pesticidal composition and its use” (Sumitomo Chemical Company, Limited, priority 2010, dated 2014) are described below.

The experiment has as its system Rhizoctonia solani. Description: Soybean seed treatment test in soil contaminated by Rhizoctonia solani (disease control efficacy). In kind it is in vivo, Rhizoctonia solani on soybean (variety: Natto shoryu). The settings on record: carboxamide compound alone, 0.2 g/100 kg of seeds; soybean seed application; cultivated 20 days in soil contaminated by Rhizoctonia solani; efficacy vs non-treated plot. As for the experimental part: A cyclohexanone solution (100microL) containing prescribed amount (weight) of a test compound was applied on seeds of soybean (variety : Natto shoryu) (10 g) by using a rotary apparatus for seed treatment (Seed dresser, manufactured by Hans-Ulrich Hege GmbH).
One day after the application, plastic pot was filled with soil contaminated by Rhizoctonia solani, and the seeds treated with the test compounds were seeded in the soil and cultivated in a glass-greenhouse for 20 days (hereinafter referred to as “treated plot”).
Thereafter, the presence of disease caused by Rhizoctonia solani in the young plants which germinated from each seed was observed and disease severity was calculated according to the following calculation formula (1).
On the other hand, seeds of soybean which were not treated as above were cultivated in the same way as above (hereinafter referred to as “non-treated plot”) and the disease severity in “non-treated plot” was calculated in the same way as the above “treated plot”. On the basis of the above severity of disease in “treated plot” and “non-treated plot”, efficacy in the “treated plot” was evaluated according to the following calculation formula (2).
Calculation formula (1): Disease severity (%)=(number of infected young plants/total number of young plants)×100 […]

As for `Cc1nn(C)c(C)c1C(=O)Nc1cccc2c1C(C)CC2(C)C` (centres unmarked) [carboxamide compound (5)], the “efficacy (%)” value amounted to 21.1%.

For the molecule `CC1CC(C)(C)c2cccc(NC(=O)c3cn(C)nc3C(F)F)c21` (centres unmarked) [carboxamide compound (1)], the “efficacy (%)” value turned out to be 42.1%.
